Patent US20100267561A1, “HERBICIDAL PYRIDAZINONE DERIVATIVES” (priority 2007, published 2010)

How the values were obtained:
Type in all cases: in vivo
[1] = system: winter barley (Hordeum vulgare); test: Test C pre-/postemergence plant response
Procedure, shortened: (§1)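 Test chemicals in a non-phytotoxic solvent with surfactant were applied preemergence, and some were also applied postemergence to plants 2–18 cm tall (1- to 4-leaf stage). Visual ratings against controls were made after 15–25 days in a controlled environment, on a 0–100 scale where 100 means complete control.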

wild oat (Avena fatua) = test: Test C pre-/postemergence plant response
Procedure, shortened: as §1

canola (Brassica rapa) = test: Test C pre-/postemergence plant response
Procedure, shortened: as §1

[2] = system: wild mustard (Sinapis arvensis); test: Test C pre-/postemergence plant response
Procedure, shortened: as §1

[3] = system: windgrass (Apera spica-venti); test: Test C pre-/postemergence plant response
Procedure, shortened: as §1

[4] = system: pigweed (Amaranthus retroflexus); test: Test C pre-/postemergence plant response
Procedure, shortened: as §1

[5] = system: annual bluegrass (Poa annua); test: Test C pre-/postemergence plant response
Procedure, shortened: as §1

[6] = system: winter wheat (Triticum aestivum); test: Test C pre-/postemergence plant response
Procedure, shortened: as §1

[7] = system: spring wheat (Triticum aestivum); test: Test C pre-/postemergence plant response
Procedure, shortened: as §1

[8] = system: spring barley (Hordeum vulgare); test: Test C pre-/postemergence plant response
Procedure, shortened: as §1

[9] = system: green foxtail (Setaria viridis); test: Test C pre-/postemergence plant response
Procedure, shortened: as §1

[10] = system: downy bromegrass (Bromus tectorum); test: Test C pre-/postemergence plant response
Procedure, shortened: as §1

[11] = system: canarygrass (Phalaris minor); test: Test C pre-/postemergence plant response
Procedure, shortened: as §1

[12] = system: Italian ryegrass (Lolium multiflorum); test: Test C pre-/postemergence plant response
Procedure, shortened: as §1

[13] = system: blackgrass (Alopecurus myosuroides); test: Test C pre-/postemergence plant response
Procedure, shortened: as §1

corn (Zea mays) = test: Test A pre-/postemergence plant response
Procedure, shortened: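 Ratings are visual, 0–100, where 100 means complete control and 0 no effect, taken roughly 10 days after treatment by comparison with untreated controls. Formulation: non-phytotoxic solvent mixture with surfactant.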

[14] = Postemergence, 8 g ai/ha, scale 0 to 100, 0 no effect, 100 complete control
[15] = Postemergence, 16 g ai/ha, scale 0 to 100, 0 no effect, 100 complete control
[16] = Postemergence, 31 g ai/ha, scale 0 to 100, 0 no effect, 100 complete control
[17] = Postemergence, 62 g ai/ha, scale 0 to 100, 0 no effect, 100 complete control
[18] = Preemergence, 8 g ai/ha, scale 0 to 100 (0 no effect, 100 complete control)
[19] = Preemergence, 16 g ai/ha, scale 0 to 100 (0 no effect, 100 complete control)
[20] = Preemergence, 31 g ai/ha, scale 0 to 100 (0 no effect, 100 complete control)
[21] = Preemergence, 62 g ai/ha, scale 0 to 100, 0 no effect, 100 complete control

## CCCc1cc(-c2ccc(Cl)cc2)nn1-c1c(O)cnn(C)c1=O [Compound 43]
[1]; [14]
  Plant response rating, Barley, Winter: 5
[1]; [15]
  Plant response rating, Barley, Winter: 15
[1]; [16]
  Plant response rating, Barley, Winter: 40
[1]; [17]
  Plant response rating, Barley, Winter: 80
[1]; [18]
  Plant response rating, Barley, Winter: 0
[1]; [19]
  Plant response rating, Barley, Winter: 20
[1]; [20]
  Plant response rating, Barley, Winter: 50
[1]; [21]
  Plant response rating, Barley, Winter: 65
Wild oat (Avena fatua); [14]
  Plant response rating, Oat, Wild: 100
Wild oat (Avena fatua); [15]
  Plant response rating, Oat, Wild: 100
Wild oat (Avena fatua); [16]
  Plant response rating, Oat, Wild: 100
Wild oat (Avena fatua); [17]
  Plant response rating, Oat, Wild: 100
Wild oat (Avena fatua); [18]
  Plant response rating, Oat, Wild: 35
Wild oat (Avena fatua); [19]
  Plant response rating, Oat, Wild: 70
Wild oat (Avena fatua); [20]
  Plant response rating, Oat, Wild: 80
Wild oat (Avena fatua); [21]
  Plant response rating, Oat, Wild: 98
Canola (Brassica rapa); [14]
  Plant response rating, Canola: 0
Canola (Brassica rapa); [15]
  Plant response rating, Canola: 0
Canola (Brassica rapa); [16]
  Plant response rating, Canola: 0
Canola (Brassica rapa); [17]
  Plant response rating, Canola: 0
Canola (Brassica rapa); [18]
  Plant response rating, Canola: 0
Canola (Brassica rapa); [20]
  Plant response rating, Canola: 0
Canola (Brassica rapa); [21]
  Plant response rating, Canola: 0
[2]; [14]
  Plant response rating, Mustard, Wild: 0
[2]; [15]
  Plant response rating, Mustard, Wild: 0
[2]; [16]
  Plant response rating, Mustard, Wild: 0
[2]; [17]
  Plant response rating, Mustard, Wild: 25
[2]; [18]
  Plant response rating, Mustard, Wild: 0
[2]; [19]
  Plant response rating, Mustard, Wild: 0
[2]; [20]
  Plant response rating, Mustard, Wild: 0
[2]; [21]
  Plant response rating, Mustard, Wild: 0
[3]; [14]
  Plant response rating, Windgrass: 30
[3]; [15]
  Plant response rating, Windgrass: 60
[3]; [16]
  Plant response rating, Windgrass: 60
[3]; [17]
  Plant response rating, Windgrass: 60
[3]; [19]
  Plant response rating, Windgrass: 25
[3]; [20]
  Plant response rating, Windgrass: 80
[3]; [21]
  Plant response rating, Windgrass: 100
[4]; [14]
  Plant response rating, Pigweed: 0
[4]; [15]
  Plant response rating, Pigweed: 0
[4]; [16]
  Plant response rating, Pigweed: 0
[4]; [17]
  Plant response rating, Pigweed: 0
[4]; [18]
  Plant response rating, Pigweed: 0
[4]; [19]
  Plant response rating, Pigweed: 0
[4]; [20]
  Plant response rating, Pigweed: 0
[4]; [21]
  Plant response rating, Pigweed: 20
[5]; [14]
  Plant response rating, Bluegrass: 0
[5]; [15]
  Plant response rating, Bluegrass: 0
[5]; [16]
  Plant response rating, Bluegrass: 0
[5]; [17]
  Plant response rating, Bluegrass: 15
[5]; [18]
  Plant response rating, Bluegrass: 0
[5]; [19]
  Plant response rating, Bluegrass: 0
[5]; [21]
  Plant response rating, Bluegrass: 25
[6]; [14]
  Plant response rating, Wheat, Winter: 5
[6]; [15]
  Plant response rating, Wheat, Winter: 25
[6]; [16]
  Plant response rating, Wheat, Winter: 40
[6]; [17]
  Plant response rating, Wheat, Winter: 65
[6]; [18]
  Plant response rating, Wheat, Winter: 0
[6]; [19]
  Plant response rating, Wheat, Winter: 0
[6]; [20]
  Plant response rating, Wheat, Winter: 20
[6]; [21]
  Plant response rating, Wheat, Winter: 70
[7]; [14]
  Plant response rating, Wheat, Spring: 0
[7]; [15]
  Plant response rating, Wheat, Spring: 15
[7]; [16]
  Plant response rating, Wheat, Spring: 60
[7]; [17]
  Plant response rating, Wheat, Spring: 90
[7]; [18]
  Plant response rating, Wheat, Spring: 0
[7]; [19]
  Plant response rating, Wheat, Spring: 0
[7]; [20]
  Plant response rating, Wheat, Spring: 30
[7]; [21]
  Plant response rating, Wheat, Spring: 65
[8]; [14]
  Plant response rating, Barley, Spring: 20
[8]; [15]
  Plant response rating, Barley, Spring: 35
[8]; [16]
  Plant response rating, Barley, Spring: 50
[8]; [17]
  Plant response rating, Barley, Spring: 90
[8]; [18]
  Plant response rating, Barley, Spring: 0
[8]; [19]
  Plant response rating, Barley, Spring: 20
[8]; [20]
  Plant response rating, Barley, Spring: 35
[8]; [21]
  Plant response rating, Barley, Spring: 60
[9]; [14]
  Plant response rating, Foxtail, Green: 90
[9]; [15]
  Plant response rating, Foxtail, Green: 95
[9]; [16]
  Plant response rating, Foxtail, Green: 98
[9]; [17]
  Plant response rating, Foxtail, Green: 98
[9]; [18]
  Plant response rating, Foxtail, Green: 75
[9]; [19]
  Plant response rating, Foxtail, Green: 100
[9]; [20]
  Plant response rating, Foxtail, Green: 100
[9]; [21]
  Plant response rating, Foxtail, Green: 100
[10]; [14]
  Plant response rating, Bromegrass, Downy: 0
[10]; [15]
  Plant response rating, Bromegrass, Downy: 0
[10]; [16]
  Plant response rating, Bromegrass, Downy: 0
[10]; [17]
  Plant response rating, Bromegrass, Downy: 75
[10]; [18]
  Plant response rating, Bromegrass, Downy: 10
[10]; [19]
  Plant response rating, Bromegrass, Downy: 25
[10]; [20]
  Plant response rating, Bromegrass, Downy: 40
[10]; [21]
  Plant response rating, Bromegrass, Downy: 75
[11]; [14]
  Plant response rating, Canarygrass: 65
[11]; [15]
  Plant response rating, Canarygrass: 75
[11]; [16]
  Plant response rating, Canarygrass: 85
[11]; [17]
  Plant response rating, Canarygrass: 95
[11]; [18]
  Plant response rating, Canarygrass: 50
[11]; [19]
  Plant response rating, Canarygrass: 65
[11]; [20]
  Plant response rating, Canarygrass: 75
[11]; [21]
  Plant response rating, Canarygrass: 95
[12]; [14]
  Plant response rating, Ryegrass, Italian: 75
[12]; [15]
  Plant response rating, Ryegrass, Italian: 98
[12]; [16]
  Plant response rating, Ryegrass, Italian: 100
[12]; [17]
  Plant response rating, Ryegrass, Italian: 100
[12]; [18]
  Plant response rating, Ryegrass, Italian: 60
[12]; [19]
  Plant response rating, Ryegrass, Italian: 98
[12]; [20]
  Plant response rating, Ryegrass, Italian: 98
[12]; [21]
  Plant response rating, Ryegrass, Italian: 98
[13]; [14]
  Plant response rating, Blackgrass: 90
[13]; [15]
  Plant response rating, Blackgrass: 98
[13]; [16]
  Plant response rating, Blackgrass: 100
[13]; [17]
  Plant response rating, Blackgrass: 100
[13]; [18]
  Plant response rating, Blackgrass: 85
[13]; [19]
  Plant response rating, Blackgrass: 90
[13]; [20]
  Plant response rating, Blackgrass: 98
[13]; [21]
  Plant response rating, Blackgrass: 100
Corn (Zea mays); Postemergence, 31 g ai/ha, 0 to 100 scale, 0 no effect, 100 complete control
  Plant response rating, Corn: 50
Corn (Zea mays); Postemergence, 125 g ai/ha, 0 to 100 scale, 0 no effect, 100 complete control
  Plant response rating, Corn: 80
Corn (Zea mays); Preemergence, 31 g ai/ha, 0 to 100 scale, 0 is no effect, 100 is complete control
  Plant response rating, Corn: 0
Corn (Zea mays); Preemergence, 125 g ai/ha, 0 to 100 scale (0 no effect, 100 complete control)
  Plant response rating, Corn: 90
